US11214803B2, “Modulators of YAP1 expression” (Ionis Pharmaceuticals, Inc., priority 2019, dated 2022)
Strand notation (5' to 3'): a small letter for the sugar, then the base; units joined by * are phosphorothioate-linked, units joined directly phosphodiester-linked; [ ] holds rarer units or linkages, { } end groups; capitals alone tell only the bases. k = constrained ethyl (cEt); [5mC] = 5-methylcytosine; d = 2'-deoxy (DNA)

These substances were tested on Yap1 mRNA (assay: Antisense inhibition of human Yap1 in A-431 cells by cEt gapmers, single dose (Example 2, RTS4814)). Details: A-431 cells, 5,000 cells per well, free uptake, 2,000 nM modified oligonucleotide, approx. 48 hours, RTS4814, normalized to RIBOGREEN; Table 4; asterisk (*) = targets amplicon region of primer probe set.
Format: cell-based
Outline: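 Read-out is Yap1 mRNA as percent of untreated cells, by real-time RT-PCR (probe set RTS4814) normalized to total RNA via RIBOGREEN. Cells were A-431 dosed with 2,000 nM gapmer without transfection for approximately 48 hours.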
In the case of “716448 (k[5mC]*k[5mC]*kG*dA*d[5mC]*dA*dA*dA*dA*d[5mC]*d[5mC]*dA*dA*k[5mC]*k[5mC]*kA; antisense) [Compound 716448]”, the “YAP1 (% UTC)” value is reported as 62 % UTC. In the case of “716454 (k[5mC]*kG*kA*dG*dA*dT*dT*dT*dA*dA*dA*dT*dA*kA*kG*kG; antisense) [Compound 716454]”, the “YAP1 (% UTC)” value is reported as 27 % UTC. In the case of “716415 (kA*kG*k[5mC]*dT*d[5mC]*d[5mC]*dT*d[5mC]*dT*d[5mC]*d[5mC]*dT*dT*k[5mC]*kT*kA; antisense) [Compound 716415]”, the “YAP1 (% UTC)” value is reported as 90 % UTC. “716484 (k[5mC]*kA*k[5mC]*dT*dT*dT*dT*d[5mC]*d[5mC]*dA*dG*d[5mC]*dT*kA*kA*k[5mC]; antisense) [Compound 716484]” was tested, and the “YAP1 (% UTC)” value was 35 % UTC.

Same assay, conditions: Table 5; A-431 cells, 5,000 cells per well, free uptake, 2,000 nM modified oligonucleotide, approx. 48 hours; RTS4814; normalized to RIBOGREEN; Yap1 mRNA relative to untreated control cells
“716461 (kA*kT*kA*dA*dA*d[5mC]*dT*dA*d[5mC]*dT*dA*dG*dT*k[5mC]*kA*kT; antisense) [Compound 716461]” was tested, and the “YAP1 (% UTC)” value was 123 % UTC. “716554 (kA*kT*kG*d[5mC]*dT*dT*dG*d[5mC]*dG*dA*dG*dG*dA*kT*kA*kA; antisense) [Compound 716554]” was tested, and the “YAP1 (% UTC)” value was 30 % UTC. For “716392 (k[5mC]*kT*kG*d[5mC]*d[5mC]*dA*d[5mC]*d[5mC]*d[5mC]*dA*dT*dG*dA*k[5mC]*kG*k[5mC]; antisense) [Compound 716392]”, the “YAP1 (% UTC)” value was 95 % UTC. For “716413 (kT*k[5mC]*k[5mC]*dA*dA*dG*dG*dT*d[5mC]*d[5mC]*dA*d[5mC]*dA*kT*kT*kT; antisense) [Compound 716413]”, the “YAP1 (% UTC)” value was 79 % UTC. “716443 (kT*kT*kA*dT*dG*dT*dG*dA*d[5mC]*dT*dA*dA*dT*kG*kA*kT; antisense) [Compound 716443]” was tested, and the “YAP1 (% UTC)” value was 73 % UTC.

Same assay, conditions: Table 6; A-431 cells, 5,000 cells per well, free uptake, 2,000 nM modified oligonucleotide, approx. 48 hours; RTS4814; normalized to RIBOGREEN; Yap1 mRNA relative to untreated control cells
For “716516 (antisense kA*kA*k[5mC]*dT*dT*dT*d[5mC]*d[5mC]*d[5mC]*dA*d[5mC]*d[5mC]*d[5mC]*kT*k[5mC]*k[5mC]) [Compound 716516]”, the “YAP1 (% UTC)” value was 84 % UTC. For “716396 (k[5mC]*kA*kG*dT*dT*d[5mC]*dT*dT*dG*d[5mC]*dT*dG*dT*kT*kT*k[5mC]; antisense) [Compound 716396]”, the “YAP1 (% UTC)” value was 123 % UTC.

Same assay, conditions: Table 18; A-431 cells, 5,000 cells per well, free uptake, 2,000 nM modified oligonucleotide, approx. 48 hours; RTS4814; normalized to RIBOGREEN; Yap1 mRNA as percent of untreated control
“1076516 (antisense k[5mC]*kA*kT*dA*dA*dA*d[5mC]*dA*dT*dG*dA*dG*dT*kG*kG*kT) [Compound 1076516]” was tested, and the “YAP1 (% UTC)” value was 8 % UTC. For “1075300 (k[5mC]*kG*kT*dG*dA*dA*dA*dA*dG*dA*dA*dA*dG*kG*k[5mC]*k[5mC]; antisense) [Compound 1075300]”, the “YAP1 (% UTC)” value was 98 % UTC.

Same assay, conditions: Table 19; A-431 cells, 5,000 cells per well, free uptake, 2,000 nM modified oligonucleotide, approx. 48 hours; RTS4814; normalized to RIBOGREEN; Yap1 mRNA as percent of untreated control
With “1074917 (antisense k[5mC]*kA*kA*dG*dT*dT*dA*d[5mC]*dA*dT*d[5mC]*d[5mC]*d[5mC]*kG*kA*kG) [Compound 1074917]” the “YAP1 (% UTC)” value was 80 % UTC. In the case of “1076293 (kG*k[5mC]*kT*dT*dA*dT*dT*dA*dT*dT*dG*dA*dG*kT*kT*kA; antisense) [Compound 1076293]”, the “YAP1 (% UTC)” value is reported as 3 % UTC. “1074149 (antisense kG*k[5mC]*k[5mC]*dG*dA*dG*dG*dT*dG*dG*dA*dG*dA*kA*kG*k[5mC]) [Compound 1074149]” was tested, and the “YAP1 (% UTC)” value was 58 % UTC.

Same assay, conditions: Table 20; Yap1 mRNA, percent of untreated control; 3-10-3 cEt gapmers targeting SEQ ID NO.: 1 and 2
“1075974 (kA*kA*kA*dA*dA*dA*dT*dT*d[5mC]*d[5mC]*dG*d[5mC]*dA*kA*k[5mC]*kA; antisense) [Compound 1075974]” was tested, and the “YAP1 (% UTC)” value was 39 % UTC. With “1074822 (kT*kA*kG*dA*dA*dA*dA*dG*dT*dG*dT*dT*dA*kA*kG*k[5mC]; antisense) [Compound 1074822]” the “YAP1 (% UTC)” value was 25 % UTC. “1076326 (kG*k[5mC]*kT*dA*dA*dT*dA*dA*dT*dG*dG*dA*dA*kG*kA*kG; antisense) [Compound 1076326]” was tested, and the “YAP1 (% UTC)” value was 4 % UTC. With “1074790 (k[5mC]*kA*kT*d[5mC]*dA*dA*d[5mC]*d[5mC]*dA*dT*dA*dA*dG*kT*kA*kG; antisense) [Compound 1074790]” the “YAP1 (% UTC)” value was 28 % UTC.

Same assay, conditions: Table 21; Yap1 mRNA, percent of untreated control; 3-10-3 cEt gapmers targeting SEQ ID NO.: 1 and 2
With “1075847 (k[5mC]*kT*kT*dT*dA*dT*dA*dG*d[5mC]*dA*dG*dA*dT*kG*k[5mC]*k[5mC]; antisense) [Compound 1075847]” the “YAP1 (% UTC)” value was 14 % UTC. In the case of “1074599 (antisense kG*k[5mC]*kT*dA*dA*d[5mC]*dT*d[5mC]*dA*dA*dA*dA*d[5mC]*k[5mC]*kT*kT) [Compound 1074599]”, the “YAP1 (% UTC)” value is reported as 12 % UTC. “1075687 (kT*kA*kA*dA*d[5mC]*dG*dA*dG*dT*dA*dA*dT*dG*kA*k[5mC]*kT; antisense) [Compound 1075687]” was tested, and the “YAP1 (% UTC)” value was 23 % UTC. For “1076103 (kG*k[5mC]*kT*dT*dA*dA*d[5mC]*dA*dA*dA*dT*d[5mC]*dA*kG*k[5mC]*k[5mC]; antisense) [Compound 1076103]”, the “YAP1 (% UTC)” value was 79 % UTC.

Same assay, conditions: Table 22; Yap1 mRNA as percent of untreated control; 3-10-3 cEt gapmers; single dose
For “1074280 (antisense kG*kG*kT*d[5mC]*dA*dA*dG*d[5mC]*d[5mC]*dT*dT*dG*dG*kG*kT*k[5mC]) [Compound 1074280]”, the “YAP1 (% UTC)” value was 43 % UTC. In the case of “1075176 (antisense kA*kA*kT*dT*dA*d[5mC]*d[5mC]*d[5mC]*dG*dG*dG*dA*dA*k[5mC]*kT*kA) [Compound 1075176]”, the “YAP1 (% UTC)” value is reported as 70 % UTC. In the case of “1076552 (antisense kA*kT*kG*dT*dA*dT*dA*dA*dA*dT*dA*d[5mC]*d[5mC]*kA*kG*kG) [Compound 1076552]”, the “YAP1 (% UTC)” value is reported as 7 % UTC. With “1075656 (kA*kA*kA*dA*d[5mC]*dG*dG*dT*dT*dT*dT*dT*d[5mC]*kT*kA*kA; antisense) [Compound 1075656]” the “YAP1 (% UTC)” value was 103 % UTC.

Same assay, conditions: Table 23; Yap1 mRNA as percent of untreated control; 3-10-3 cEt gapmers; single dose
With “1076169 (k[5mC]*kT*kA*d[5mC]*dT*dA*dT*dA*dT*d[5mC]*dT*dT*dT*kG*kG*kG; antisense) [Compound 1076169]” the “YAP1 (% UTC)” value was 10 % UTC. In the case of “1074761 (kT*kA*k[5mC]*d[5mC]*d[5mC]*dA*dA*dT*dA*d[5mC]*dA*dA*d[5mC]*k[5mC]*kA*kA; antisense) [Compound 1074761]”, the “YAP1 (% UTC)” value is reported as 15 % UTC.

Same assay, conditions: Table 24; Yap1 mRNA as percent of untreated control; 3-10-3 cEt gapmers targeting SEQ ID NO.: 1, and 2
“1074602 (antisense kT*k[5mC]*k[5mC]*dA*dG*d[5mC]*dT*dA*dA*d[5mC]*dT*d[5mC]*dA*kA*kA*kA) [Compound 1074602]” was tested, and the “YAP1 (% UTC)” value was 24 % UTC. “1075498 (k[5mC]*kA*kT*dT*dA*dT*dA*dT*dA*dA*dT*dG*d[5mC]*kA*kG*kG; antisense) [Compound 1075498]” was tested, and the “YAP1 (% UTC)” value was 9 % UTC. With “1074986 (antisense k[5mC]*kT*kA*d[5mC]*dT*dG*dT*dA*dA*dT*d[5mC]*dA*d[5mC]*k[5mC]*kT*kT) [Compound 1074986]” the “YAP1 (% UTC)” value was 78 % UTC.

Same assay, conditions: Table 25; Yap1 mRNA as percent of untreated control; 3-10-3 cEt gapmers targeting SEQ ID NO.: 1, and 2
For “1075051 (antisense kA*kA*kT*dA*dA*dA*d[5mC]*dA*dA*d[5mC]*d[5mC]*d[5mC]*dA*kA*k[5mC]*kG) [Compound 1075051]”, the “YAP1 (% UTC)” value was 56 % UTC. “1074123 (antisense kG*k[5mC]*kT*dG*d[5mC]*dG*dA*dG*dG*d[5mC]*dA*d[5mC]*dT*k[5mC]*kG*kG) [Compound 1074123]” was tested, and the “YAP1 (% UTC)” value was 72 % UTC. “1075755 (kA*k[5mC]*kT*dT*dA*dA*dA*dT*dG*dG*d[5mC]*dA*d[5mC]*kA*kG*kT; antisense) [Compound 1075755]” was tested, and the “YAP1 (% UTC)” value was 73 % UTC. With “1075435 (antisense k[5mC]*kT*kT*dA*dA*dA*d[5mC]*dG*dA*dT*dA*dA*dA*kG*kT*kA) [Compound 1075435]” the “YAP1 (% UTC)” value was 93 % UTC. With “1075403 (antisense k[5mC]*kT*kT*dA*dA*dT*d[5mC]*dA*dG*dG*dT*dA*d[5mC]*kT*kA*kT) [Compound 1075403]” the “YAP1 (% UTC)” value was 18 % UTC.

Same assay, conditions: Table 32; Yap1 mRNA, percent of untreated control; 3-10-3 cEt gapmers targeting SEQ ID NO.: 1, and 2
“1076082 (kT*k[5mC]*kT*d[5mC]*dA*dA*dT*dA*d[5mC]*dA*d[5mC]*dT*dA*kT*kA*kT; antisense) [compound 1076082]” was tested, and the “YAP1 (% UTC)” value was 38 % UTC. In the case of “1076018 (kA*k[5mC]*kT*dA*dA*dT*dA*dG*dG*dA*dT*dG*dG*kA*kT*kT; antisense) [compound 1076018]”, the “YAP1 (% UTC)” value is reported as 15 % UTC.

Same assay, conditions: Table 33; Yap1 mRNA, percent of untreated control; 3-10-3 cEt gapmers targeting SEQ ID NO.: 1, and 2
With “1076563 (k[5mC]*kA*kA*dA*dG*dT*dA*dA*dT*dT*dA*dA*dA*k[5mC]*kG*kA; antisense) [compound 1076563]” the “YAP1 (% UTC)” value was 91 % UTC.

Same assay, conditions: Yap1 mRNA as percent of untreated control; A-431 cells; 3-10-3 cEt gapmers targeting SEQ ID NO.: 1, and 2; Table 30
In the case of “1074704 (antisense k[5mC]*kA*k[5mC]*dG*dG*dT*dG*dT*dA*dA*dG*dA*d[5mC]*kA*kA*kG) [compound 1074704]”, the “YAP1 (% UTC)” value is reported as 16 % UTC. With “1076144 (kT*kT*kT*dT*dA*dT*dA*dG*dG*dG*d[5mC]*dA*dA*kT*kG*kG; antisense) [compound 1076144]” the “YAP1 (% UTC)” value was 7 % UTC.

Same assay, conditions: Yap1 mRNA as percent of untreated control; A-431 cells; 3-10-3 cEt gapmers targeting SEQ ID NO.: 1, and 2; Table 31
With “1074833 (kT*kG*k[5mC]*dG*dA*dG*dG*dA*dT*dA*dA*dA*dA*kT*k[5mC]*k[5mC]; antisense) [compound 1074833]” the “YAP1 (% UTC)” value was 17 % UTC. In the case of “1074961 (antisense kT*k[5mC]*k[5mC]*dT*d[5mC]*d[5mC]*dT*dT*dA*dA*d[5mC]*d[5mC]*d[5mC]*kG*kG*kG) [compound 1074961]”, the “YAP1 (% UTC)” value is reported as 93 % UTC.
